Data taken from the supplement of paper PMC10307832.

Tests used:
Test in all cases: relative viability (nuclei count vs DMSO), 5 days (fraction); higher = more cells survive
[1] = compound: CS(=O)(=O)c1ccc(-c2cnc(N)c(C(=O)Nc3ccccc3)n2)cc1 [VE-821] + CS(=O)(=O)N1CCN(Cc2cc3nc(-c4cccc5[nH]ncc45)nc(N4CCOCC4)c3s2)CC1 [Pictilisib] (partner 1 µM)
Outline: (§1)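 Lung cancer cell lines in 1536-well plates were dosed by pin tool the day after seeding, either with one drug alone or with a fixed anchor-drug dose plus five library-drug doses (not always all listed) in √10 steps. After 5 days, cells were fixed and their nuclei stained in one step (final 0.05% Triton X-100, 1% formaldehyde, 1 ug/ml Hoechst), then counted on 4× images. Relative viability is the nuclei count in treated wells divided by that in vehicle wells. Values are medians of duplicate plates.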

[2] = compound: CS(=O)(=O)c1ccc(-c2cnc(N)c(C(=O)Nc3ccccc3)n2)cc1 [VE-821] + Nc1ncn([C@H]2C[C@H](O)[C@@H](CO)O2)c(=O)n1 [Decitabine] (partner 2 µM)
Outline: as §1

[3] = compound: CS(=O)(=O)c1ccc(C(=O)Nc2ccc(Cl)c(-c3ccccn3)c2)c(Cl)c1 [Vismodegib] + CS(=O)(=O)N1CCN(Cc2cc3nc(-c4cccc5[nH]ncc45)nc(N4CCOCC4)c3s2)CC1 [Pictilisib] (partner 1 µM)
Outline: as §1

[4] = compound: N#CC[C@H](C1CCCC1)n1cc(-c2ncnc3[nH]ccc23)cn1 [Ruxolitinib] + CS(=O)(=O)N1CCN(Cc2cc3nc(-c4cccc5[nH]ncc45)nc(N4CCOCC4)c3s2)CC1 [Pictilisib] (partner 1 µM)
Outline: as §1

Cell Line NCI-H1792 has a relative viability ([1]; first compound 0.08 µM) of 0.274, a relative viability ([1]; first compound 0.253 µM) of 0.393 and a relative viability ([1]; first compound 0.8 µM) of 0.281. It also gave a relative viability ([1]; first compound 2.53 µM) of 0.319, a relative viability ([1]; first compound 8 µM) of 0.271 and a relative viability ([2]; first compound 0.08 µM) of 0.639. It also gave a relative viability ([2]; first compound 0.253 µM) of 0.536, a relative viability ([2]; first compound 0.8 µM) of 0.482 and a relative viability ([2]; first compound 2.53 µM) of 0.586. The relative viability ([2]; first compound 8 µM) was 0.529, the relative viability ([3]; first compound 0.08 µM) was 0.28 and the relative viability ([3]; first compound 0.253 µM) was 0.299. For the same cell line, the relative viability ([3]; first compound 0.8 µM) was 0.23, the relative viability ([3]; first compound 2.53 µM) was 0.227 and the relative viability ([3]; first compound 8 µM) was 0.28. For the same cell line, the relative viability ([4]; first compound 0.08 µM) was 0.259, the relative viability ([4]; first compound 0.253 µM) was 0.289 and the relative viability ([4]; first compound 0.8 µM) was 0.278. The relative viability ([4]; first compound 2.53 µM) was 0.197 and the relative viability ([4]; first compound 8 µM) was 0.214.
For PC-14, the relative viability ([1]; first compound 0.08 µM) was 0.91, the relative viability ([1]; first compound 0.253 µM) was 0.734 and the relative viability ([1]; first compound 0.8 µM) was 0.708. The relative viability ([1]; first compound 2.53 µM) was 0.759, the relative viability ([1]; first compound 8 µM) was 0.74 and the relative viability ([2]; first compound 0.08 µM) was 0.221. For the same cell line, the relative viability ([2]; first compound 0.253 µM) was 0.241, the relative viability ([2]; first compound 0.8 µM) was 0.222 and the relative viability ([2]; first compound 2.53 µM) was 0.213. It also gave a relative viability ([2]; first compound 8 µM) of 0.126, a relative viability ([3]; first compound 0.08 µM) of 0.492 and a relative viability ([3]; first compound 0.253 µM) of 0.576. For the same cell line, the relative viability ([3]; first compound 0.8 µM) was 0.792, the relative viability ([3]; first compound 2.53 µM) was 0.541 and the relative viability ([3]; first compound 8 µM) was 0.821. For the same cell line, the relative viability ([4]; first compound 0.253 µM) was 0.618, the relative viability ([4]; first compound 0.8 µM) was 0.799 and the relative viability ([4]; first compound 2.53 µM) was 0.654. The relative viability ([4]; first compound 8 µM) was 0.476.
With NCI-H650 the relative viability ([1]; first compound 0.08 µM) was 0.882, the relative viability ([1]; first compound 0.253 µM) was 0.927 and the relative viability ([1]; first compound 0.8 µM) was 0.731. For the same cell line, the relative viability ([1]; first compound 2.53 µM) was 0.985, the relative viability ([1]; first compound 8 µM) was 0.88 and the relative viability ([2]; first compound 0.08 µM) was 0.311. It also gave a relative viability ([2]; first compound 0.253 µM) of 0.342, a relative viability ([2]; first compound 0.8 µM) of 0.383 and a relative viability ([2]; first compound 2.53 µM) of 0.436. The relative viability ([2]; first compound 8 µM) was 0.366, the relative viability ([3]; first compound 0.08 µM) was 0.799 and the relative viability ([3]; first compound 0.253 µM) was 0.733. For the same cell line, the relative viability ([3]; first compound 0.8 µM) was 0.643, the relative viability ([3]; first compound 2.53 µM) was 0.945 and the relative viability ([3]; first compound 8 µM) was 0.947. For the same cell line, the relative viability ([4]; first compound 0.253 µM) was 0.881, the relative viability ([4]; first compound 0.8 µM) was 1.21 and the relative viability ([4]; first compound 2.53 µM) was 0.699. The relative viability ([4]; first compound 8 µM) was 0.649.
For NCI-H1650, the relative viability ([1]; first compound 0.08 µM) was 0.677, the relative viability ([1]; first compound 0.253 µM) was 0.506 and the relative viability ([1]; first compound 0.8 µM) was 0.57. The relative viability ([1]; first compound 2.53 µM) was 0.638, the relative viability ([1]; first compound 8 µM) was 0.499 and the relative viability ([2]; first compound 0.08 µM) was 0.448. The relative viability ([2]; first compound 0.253 µM) was 0.369, the relative viability ([2]; first compound 0.8 µM) was 0.322 and the relative viability ([2]; first compound 2.53 µM) was 0.437. The relative viability ([2]; first compound 8 µM) was 0.389, the relative viability ([3]; first compound 0.08 µM) was 0.557 and the relative viability ([3]; first compound 0.253 µM) was 0.587. It also gave a relative viability ([3]; first compound 0.8 µM) of 0.558, a relative viability ([3]; first compound 2.53 µM) of 0.529 and a relative viability ([3]; first compound 8 µM) of 0.639. The relative viability ([4]; first compound 0.253 µM) was 0.608, the relative viability ([4]; first compound 0.8 µM) was 0.734 and the relative viability ([4]; first compound 2.53 µM) was 0.551. For the same cell line, the relative viability ([4]; first compound 8 µM) was 0.645.
NCI-H1355 gave a relative viability ([1]; first compound 0.08 µM) of 0.431, a relative viability ([1]; first compound 0.253 µM) of 0.458 and a relative viability ([1]; first compound 0.8 µM) of 0.411. The relative viability ([1]; first compound 2.53 µM) was 0.476, the relative viability ([1]; first compound 8 µM) was 0.32 and the relative viability ([2]; first compound 0.08 µM) was 0.362. The relative viability ([2]; first compound 0.253 µM) was 0.347, the relative viability ([2]; first compound 0.8 µM) was 0.333 and the relative viability ([2]; first compound 2.53 µM) was 0.371. For the same cell line, the relative viability ([2]; first compound 8 µM) was 0.36, the relative viability ([3]; first compound 0.08 µM) was 0.391 and the relative viability ([3]; first compound 0.253 µM) was 0.508. For the same cell line, the relative viability ([3]; first compound 0.8 µM) was 0.31, the relative viability ([3]; first compound 2.53 µM) was 0.432 and the relative viability ([3]; first compound 8 µM) was 0.448. The relative viability ([4]; first compound 0.08 µM) was 0.385, the relative viability ([4]; first compound 0.253 µM) was 0.391 and the relative viability ([4]; first compound 0.8 µM) was 0.386. For the same cell line, the relative viability ([4]; first compound 2.53 µM) was 0.329 and the relative viability ([4]; first compound 8 µM) was 0.352.
HOP-62 showed a relative viability ([1]; first compound 0.08 µM) of 0.689, a relative viability ([1]; first compound 0.253 µM) of 0.785 and a relative viability ([1]; first compound 0.8 µM) of 0.807. For the same cell line, the relative viability ([1]; first compound 2.53 µM) was 0.944, the relative viability ([1]; first compound 8 µM) was 0.516 and the relative viability ([2]; first compound 0.08 µM) was 0.185. For the same cell line, the relative viability ([2]; first compound 0.253 µM) was 0.261, the relative viability ([2]; first compound 0.8 µM) was 0.265 and the relative viability ([2]; first compound 2.53 µM) was 0.214. For the same cell line, the relative viability ([2]; first compound 8 µM) was 0.25, the relative viability ([3]; first compound 0.08 µM) was 0.751 and the relative viability ([3]; first compound 0.253 µM) was 0.703. The relative viability ([3]; first compound 0.8 µM) was 0.759, the relative viability ([3]; first compound 2.53 µM) was 0.815 and the relative viability ([3]; first compound 8 µM) was 0.656. The relative viability ([4]; first compound 0.253 µM) was 0.743, the relative viability ([4]; first compound 0.8 µM) was 0.876 and the relative viability ([4]; first compound 2.53 µM) was 0.63. The relative viability ([4]; first compound 8 µM) was 0.839.
In the case of NCI-H3122, the relative viability ([1]; first compound 0.08 µM) is reported as 0.666, the relative viability ([1]; first compound 0.253 µM) is reported as 0.672 and the relative viability ([1]; first compound 0.8 µM) is reported as 0.563. It also gave a relative viability ([1]; first compound 2.53 µM) of 0.765, a relative viability ([1]; first compound 8 µM) of 0.78 and a relative viability ([2]; first compound 0.08 µM) of 0.474. It also gave a relative viability ([2]; first compound 0.253 µM) of 0.482, a relative viability ([2]; first compound 0.8 µM) of 0.485 and a relative viability ([2]; first compound 2.53 µM) of 0.46. The relative viability ([2]; first compound 8 µM) was 0.428, the relative viability ([3]; first compound 0.08 µM) was 0.548 and the relative viability ([3]; first compound 0.253 µM) was 0.599. It also gave a relative viability ([3]; first compound 0.8 µM) of 0.553, a relative viability ([3]; first compound 2.53 µM) of 0.696 and a relative viability ([3]; first compound 8 µM) of 0.565. It also gave a relative viability ([4]; first compound 0.08 µM) of 0.538, a relative viability ([4]; first compound 0.253 µM) of 0.509 and a relative viability ([4]; first compound 0.8 µM) of 0.552. For the same cell line, the relative viability ([4]; first compound 2.53 µM) was 0.357 and the relative viability ([4]; first compound 8 µM) was 0.562.
NCI-H1437 showed a relative viability ([1]; first compound 0.08 µM) of 0.448, a relative viability ([1]; first compound 0.253 µM) of 0.352 and a relative viability ([1]; first compound 0.8 µM) of 0.458. It also gave a relative viability ([1]; first compound 2.53 µM) of 0.396, a relative viability ([1]; first compound 8 µM) of 0.3 and a relative viability ([2]; first compound 0.08 µM) of 0.579. The relative viability ([2]; first compound 0.253 µM) was 0.488, the relative viability ([2]; first compound 0.8 µM) was 0.593 and the relative viability ([2]; first compound 2.53 µM) was 0.598. The relative viability ([2]; first compound 8 µM) was 0.497, the relative viability ([3]; first compound 0.08 µM) was 0.504 and the relative viability ([3]; first compound 0.253 µM) was 0.487. The relative viability ([3]; first compound 0.8 µM) was 0.47, the relative viability ([3]; first compound 2.53 µM) was 0.536 and the relative viability ([3]; first compound 8 µM) was 0.483. For the same cell line, the relative viability ([4]; first compound 0.08 µM) was 0.533, the relative viability ([4]; first compound 0.253 µM) was 0.351 and the relative viability ([4]; first compound 0.8 µM) was 0.43. It also gave a relative viability ([4]; first compound 2.53 µM) of 0.429 and a relative viability ([4]; first compound 8 µM) of 0.397.
